Marks after values point to notes of the source that are not given here. A value given as a limit tells only on which side of the number the result lay.

As usually defined, the IC50 is the concentration at which inhibition is half-maximal.

One data set deals with DA uptake. The following applies: read-out: DA Uptake IC50; mean ± SEM; cited from earlier work.
The test system of data set [1] is extracellular levels of DA in the nucleus accumbens (NAc). The following applies: cited from earlier work.
The test system of data set [2] is MDCK-MDR1 monolayers. The following applies: MDCK-MDR1 monolayer characterization; cited from earlier work.
The subject of data set [3] is Caco-2 monolayers. The following applies: Caco-2 monolayer characterization; cited from earlier work.
In data set [4] the test system is MDCK-MDR1 monolayers. The experiment in a line: Bidirectional transport and verapamil inhibition across MDCK-MDR1 monolayers. The class given is in vitro ADME. The following applies: MDCK-MDR1.
In data set [5] the test system is Caco-2 monolayers. Nature of the data set: Bidirectional transport and verapamil inhibition across Caco-2 monolayers. It counts as in vitro ADME. Conditions: 0.1 mM, absence of verapamil, mean ± SD (n = 3). A general note: Passage across Caco-2 layers is used to estimate intestinal permeability.
Where [6] appears, read: 0.1 mM, absence of verapamil, mean ± SD (n = 3).

On to `CN1[C@@H]2CC[C@H]1C[C@@H](OC(c1ccccc1)c1ccccc1)C2` [BZT, benztropine, reference compound], for which the IC50 with DA uptake is 403 ± 115 nM.

With `COC(=O)[C@H]1[C@@H](OC(=O)c2ccccc2)C[C@@H]2CC[C@H]1N2C` [cocaine], in data set [1] (3 mg/kg i.v., similar microdialysis technique, ref Baumann et al.[41]), the DA increase result is “six-fold”. The DA elevation in data set [1] (5 mg/kg i.v., identical stereotaxic coordinates) was 10 fold.

As to `CC(C)NCC(O)COc1cccc2ccccc12` (centres unmarked) [propranolol], the “Papp of marker compounds” value in the data set on MDCK-MDR1 monolayers [2] was 24.33 ×10⁻⁶ cm/s; in the data set on Caco-2 monolayers [3], 13.34 ×10⁻⁶ cm/s.

For the compound `C[N+]1(C)C2CCC1CC(OC(c1ccc(F)cc1)c1ccc(F)cc1)C2` (stereo not drawn) [JHW 025, N-(dimethyl)-3α-[(bis-4′-fluorophenyl)methoxy]tropane, reference compound], the “Efflux Ratio” value in the data set with MDCK-MDR1 monolayers [4] (0.1 mM, Papp(B-A)/Papp(A-B)) is 1.5. Also, in the data set on MDCK-MDR1 monolayers [4] (setting [6]), the “Papp A-B” value is listed as 5.00 ± 0.31 × 10^−6 cm/s and the “Papp B-A” value is reported as 7.39 ± 1.17 × 10^−6 cm/s. The “Enhancement ratio of A-B transport by verapamil” value in the data set with MDCK-MDR1 monolayers [4] (verapamil 200 μM) is listed as 1.2. Further, in the data set with Caco-2 monolayers [5], the “Papp A-B” value is given as <0.34 ^a × 10^−6 cm/s and the “Papp B-A” value is listed as 1.8 ± 0.25 × 10^−6 cm/s.
